Measured values: the supplement of paper PMC10627819

Tests used:
B. subtilis 168 [1] = experiment: fitness (endpoint OD595 vs no drug) (fraction); higher = more growth
How it was run: (§1)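 Background-subtracted growth curves were the basis for fitness, taken as the optical density at entry into stationary phase over the robust mean of no-drug control wells. A cap of 1 was applied. The curves came from OD595 readings every 30 min for 14 h at 37 °C, in 384-well plates seeded at OD595 0.01 with 30 µl, or 55 µl for S. pneumoniae.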

S. pneumoniae D39V [2] = experiment: as above
How it was run: as §1

S. aureus Newman [3] = experiment: as above
How it was run: as §1

B. subtilis 168 [4] = experiment: Bliss interaction score (quartile over a dose matrix) (fitness difference); higher = more antagonism (negative = synergy)
How it was run: (§2)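 The Bliss score was calculated by subtracting the expected fitness, the product of single-drug values, from the observed fitness. OD595 at entry into stationary phase, over the plate's robust no-drug mean and capped at 1, served as the fitness readout. Single-drug values were inferred from combination data, and scores are summarised by quartiles across technical, biological and donor/recipient replicates.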

S. pneumoniae D39V [5] = experiment: as above
How it was run: as §2

S. aureus Newman [6] = experiment: as above
How it was run: as §2

S. aureus DSM 20231 = experiment: as above
How it was run: as §2

[7] = first compound 0.25 µg/mL, partner 0.39 µg/mL
[8] = first compound 0.25 µg/mL, partner 0.78 µg/mL
[9] = first compound 0.25 µg/mL, partner 1.56 µg/mL
[10] = first compound 0.5 µg/mL, partner 0.39 µg/mL
[11] = first compound 0.5 µg/mL, partner 0.78 µg/mL
[12] = first compound 0.5 µg/mL, partner 1.56 µg/mL
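Throughout, for Bliss interaction score (quartile over a dose matrix): first quartile when negative (synergy) and third quartile when positive (antagonism).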

SMILES: CNC(C)C1CCC(N)C(OC2C(N)CC(N)C(OC3OCC(C)(O)C(NC)C3O)C2O)O1 (stereo unspecified) [Gentamicin] + C[n+]1ccc(-c2cc[n+](C)cc2)cc1 [Paraquat]
- fitness (B. subtilis 168 [1]; first compound 0.0625 µg/mL, partner 1.25 µg/mL, main component drawn): 0.865
- fitness (B. subtilis 168 [1]; first compound 0.0625 µg/mL, partner 2.5 µg/mL, main component drawn): 0.864
- fitness (B. subtilis 168 [1]; first compound 0.25 µg/mL, partner 1.25 µg/mL, main component drawn): 0.203
- fitness (B. subtilis 168 [1]; first compound 0.25 µg/mL, partner 2.5 µg/mL, main component drawn): 0.0485
- fitness (B. subtilis 168 [1]; first compound 0.25 µg/mL, partner 5 µg/mL, main component drawn): 0.0561
- fitness (S. pneumoniae D39V [2]; first compound 2 µg/mL, partner 1.5 µg/mL, main component drawn): 0.982
- fitness (S. pneumoniae D39V [2]; first compound 2 µg/mL, partner 3 µg/mL, main component drawn): 0.99
- fitness (S. pneumoniae D39V [2]; first compound 2 µg/mL, partner 6 µg/mL, main component drawn): 0.931
- fitness (S. pneumoniae D39V [2]; first compound 4 µg/mL, partner 1.5 µg/mL, main component drawn): ≥ 1
- fitness (S. pneumoniae D39V [2]; first compound 4 µg/mL, partner 3 µg/mL, main component drawn): 0.971
- fitness (S. pneumoniae D39V [2]; first compound 4 µg/mL, partner 6 µg/mL, main component drawn): 0.932
- fitness (S. pneumoniae D39V [2]; first compound 8 µg/mL, partner 1.5 µg/mL, main component drawn): 0.993
- fitness (S. pneumoniae D39V [2]; first compound 8 µg/mL, partner 3 µg/mL, main component drawn): 0.902
- fitness (S. pneumoniae D39V [2]; first compound 8 µg/mL, partner 6 µg/mL, main component drawn): 0.935
- fitness (S. aureus Newman [3]; first compound 0.375 µg/mL, partner 1.25 µg/mL, one replicate, main component drawn): 0.919
- fitness (S. aureus Newman [3]; first compound 0.375 µg/mL, partner 2.5 µg/mL, one replicate, main component drawn): 0.951
- fitness (S. aureus Newman [3]; first compound 0.375 µg/mL, partner 5 µg/mL, one replicate, main component drawn): 0.952
- fitness (S. aureus Newman [3]; first compound 0.5 µg/mL, partner 1.25 µg/mL, main component drawn): 0.957
- fitness (S. aureus Newman [3]; first compound 0.5 µg/mL, partner 2.5 µg/mL, main component drawn): 0.953
- fitness (S. aureus Newman [3]; first compound 0.5 µg/mL, partner 5 µg/mL, main component drawn): 0.928
- fitness (S. aureus Newman [3]; first compound 0.75 µg/mL, partner 1.25 µg/mL, one replicate, main component drawn): 0.918
- fitness (S. aureus Newman [3]; first compound 0.75 µg/mL, partner 2.5 µg/mL, one replicate, main component drawn): 0.937
- fitness (S. aureus Newman [3]; first compound 0.75 µg/mL, partner 5 µg/mL, one replicate, main component drawn): 0.9
- fitness (S. aureus Newman [3]; first compound 1 µg/mL, partner 1.25 µg/mL, main component drawn): 0.981
- fitness (S. aureus Newman [3]; first compound 1 µg/mL, partner 2.5 µg/mL, main component drawn): ≥ 1
- fitness (S. aureus Newman [3]; first compound 1 µg/mL, partner 5 µg/mL, main component drawn): 0.992
- fitness (S. aureus Newman [3]; first compound 1.5 µg/mL, partner 1.25 µg/mL, one replicate, main component drawn): 0.949
- fitness (S. aureus Newman [3]; first compound 1.5 µg/mL, partner 2.5 µg/mL, one replicate, main component drawn): 0.98
- fitness (S. aureus Newman [3]; first compound 1.5 µg/mL, partner 5 µg/mL, one replicate, main component drawn): 0.976
- fitness (S. aureus Newman [3]; first compound 2 µg/mL, partner 1.25 µg/mL, main component drawn): ≥ 1
- fitness (S. aureus Newman [3]; first compound 2 µg/mL, partner 2.5 µg/mL, main component drawn): ≥ 1
- fitness (S. aureus Newman [3]; first compound 2 µg/mL, partner 5 µg/mL, main component drawn): 0.963
- Bliss interaction score (B. subtilis 168 [4]; main component drawn): -0.0978
- Bliss interaction score (S. pneumoniae D39V [5]; main component drawn): 0.0553
- Bliss interaction score (S. aureus Newman [6]; main component drawn): 0.0489
- Bliss interaction score (S. aureus DSM 20231; main component drawn): 0.109

SMILES: CC1=C(C(=O)O)N2C(=O)[C@@H](NC(=O)[C@H](N)c3ccccc3)[C@H]2SC1 [Cephalexin] + COc1ccc(C[C@H](N)C(=O)N[C@H]2[C@@H](O)[C@H](n3cnc4c(N(C)C)ncnc43)O[C@@H]2CO)cc1 [Puromycin]
- fitness (B. subtilis 168 [1]; first compound 0.125 µg/mL, partner 0.39 µg/mL): 0.944
- fitness (B. subtilis 168 [1]; first compound 0.125 µg/mL, partner 0.78 µg/mL): 0.952
- fitness (B. subtilis 168 [1]; first compound 0.125 µg/mL, partner 1.56 µg/mL): 0.921
- fitness (B. subtilis 168 [1]; [7]): 0.912
- fitness (B. subtilis 168 [1]; [8]): 0.891
- fitness (B. subtilis 168 [1]; [9]): 0.888
- fitness (B. subtilis 168 [1]; [10]): 0.869
- fitness (B. subtilis 168 [1]; [11]): 0.935
- fitness (B. subtilis 168 [1]; [12]): 0.938
- fitness (S. pneumoniae D39V [2]; first compound 0.125 µg/mL, partner 1 µg/mL, one replicate): ≥ 1
- fitness (S. pneumoniae D39V [2]; first compound 0.125 µg/mL, partner 2 µg/mL, one replicate): 0.939
- fitness (S. pneumoniae D39V [2]; first compound 0.125 µg/mL, partner 4 µg/mL, one replicate): 0.798
- fitness (S. pneumoniae D39V [2]; first compound 0.25 µg/mL, partner 1 µg/mL, one replicate): ≥ 1
- fitness (S. pneumoniae D39V [2]; first compound 0.25 µg/mL, partner 2 µg/mL, one replicate): 0.926
- fitness (S. pneumoniae D39V [2]; first compound 0.25 µg/mL, partner 4 µg/mL, one replicate): 0.883
- fitness (S. pneumoniae D39V [2]; first compound 0.5 µg/mL, partner 1 µg/mL, one replicate): ≥ 1
- fitness (S. pneumoniae D39V [2]; first compound 0.5 µg/mL, partner 2 µg/mL, one replicate): ≥ 1
- fitness (S. pneumoniae D39V [2]; first compound 0.5 µg/mL, partner 4 µg/mL, one replicate): 0.893
- fitness (S. pneumoniae D39V [2]; first compound 1 µg/mL, partner 1 µg/mL, one replicate): 0.158
- fitness (S. pneumoniae D39V [2]; first compound 1 µg/mL, partner 2 µg/mL, one replicate): 0.3
- fitness (S. pneumoniae D39V [2]; first compound 1 µg/mL, partner 4 µg/mL, one replicate): 0.0824
- fitness (S. pneumoniae D39V [2]; first compound 2 µg/mL, partner 1 µg/mL, one replicate): 0.0772
- fitness (S. pneumoniae D39V [2]; first compound 2 µg/mL, partner 2 µg/mL, one replicate): 0.0861
- fitness (S. pneumoniae D39V [2]; first compound 2 µg/mL, partner 4 µg/mL, one replicate): 0.0686
- fitness (S. pneumoniae D39V [2]; first compound 4 µg/mL, partner 1 µg/mL, one replicate): 0.0589
- fitness (S. pneumoniae D39V [2]; first compound 4 µg/mL, partner 2 µg/mL, one replicate): 0.055
- fitness (S. pneumoniae D39V [2]; first compound 4 µg/mL, partner 4 µg/mL, one replicate): 0.047
- fitness (S. aureus Newman [3]; [7]): 0.991
- fitness (S. aureus Newman [3]; [8]): ≥ 1
- fitness (S. aureus Newman [3]; [9]): ≥ 1
- fitness (S. aureus Newman [3]; [10]): ≥ 1
- fitness (S. aureus Newman [3]; [11]): ≥ 1
- fitness (S. aureus Newman [3]; [12]): 0.976
- fitness (S. aureus Newman [3]; first compound 1 µg/mL, partner 0.39 µg/mL): 0.99
- fitness (S. aureus Newman [3]; first compound 1 µg/mL, partner 0.78 µg/mL): ≥ 1
- fitness (S. aureus Newman [3]; first compound 1 µg/mL, partner 1.56 µg/mL): 0.991
- Bliss interaction score (B. subtilis 168 [4]): 0.0628
- Bliss interaction score (S. pneumoniae D39V [5]): -0.101
- Bliss interaction score (S. aureus Newman [6]): 0.043
- Bliss interaction score (S. aureus DSM 20231): 0.0696

SMILES: Cc1onc(-c2ccccc2)c1C(=O)N[C@@H]1C(=O)N2[C@@H]1SC(C)(C)[C@@H]2C(=O)O [Oxacillin] + CN[C@@H]1[C@H](O[C@H]2[C@H](O[C@H]3[C@H](O)[C@@H](O)[C@H](N=C(N)N)[C@@H](O)[C@@H]3N=C(N)N)O[C@@H](C)[C@]2(O)C=O)O[C@@H](CO)[C@H](O)[C@H]1O [Streptomycin]
- fitness (B. subtilis 168 [1]; first compound 0.002 µg/mL, partner 2 µg/mL): 0.982
- fitness (B. subtilis 168 [1]; first compound 0.002 µg/mL, partner 4 µg/mL): 0.369
- fitness (B. subtilis 168 [1]; first compound 0.002 µg/mL, partner 8 µg/mL): 0.0333
- fitness (B. subtilis 168 [1]; first compound 0.004 µg/mL, partner 2 µg/mL): 0.941
- fitness (B. subtilis 168 [1]; first compound 0.004 µg/mL, partner 4 µg/mL): 0.208
- fitness (B. subtilis 168 [1]; first compound 0.004 µg/mL, partner 8 µg/mL): 0.0502
- fitness (B. subtilis 168 [1]; first compound 0.008 µg/mL, partner 2 µg/mL): 0.931
- fitness (B. subtilis 168 [1]; first compound 0.008 µg/mL, partner 4 µg/mL): 0.134
- fitness (B. subtilis 168 [1]; first compound 0.008 µg/mL, partner 8 µg/mL): 0.0492
- fitness (B. subtilis 168 [1]; first compound 0.075 µg/mL, partner 2 µg/mL, one replicate): 0.534
- fitness (B. subtilis 168 [1]; first compound 0.075 µg/mL, partner 4 µg/mL, one replicate): 0.0966
- fitness (B. subtilis 168 [1]; first compound 0.075 µg/mL, partner 8 µg/mL, one replicate): 0.0343
- fitness (B. subtilis 168 [1]; first compound 0.15 µg/mL, partner 2 µg/mL, one replicate): 0.0325
- fitness (B. subtilis 168 [1]; first compound 0.15 µg/mL, partner 4 µg/mL, one replicate): 0.025
- fitness (B. subtilis 168 [1]; first compound 0.15 µg/mL, partner 8 µg/mL, one replicate): 0.0288
- fitness (B. subtilis 168 [1]; first compound 0.3 µg/mL, partner 2 µg/mL, one replicate): 0.0421
- fitness (B. subtilis 168 [1]; first compound 0.3 µg/mL, partner 4 µg/mL, one replicate): 0.0294
- fitness (B. subtilis 168 [1]; first compound 0.3 µg/mL, partner 8 µg/mL, one replicate): 0.0352
- fitness (S. pneumoniae D39V [2]; first compound 0.01 µg/mL, partner 2 µg/mL): 0.938
- fitness (S. pneumoniae D39V [2]; first compound 0.01 µg/mL, partner 4 µg/mL): 0.98
- fitness (S. pneumoniae D39V [2]; first compound 0.01 µg/mL, partner 8 µg/mL): 0.909
- fitness (S. pneumoniae D39V [2]; first compound 0.01 µg/mL, partner 16 µg/mL, one replicate): 0.887
- fitness (S. pneumoniae D39V [2]; first compound 0.02 µg/mL, partner 2 µg/mL): 0.88
- fitness (S. pneumoniae D39V [2]; first compound 0.02 µg/mL, partner 4 µg/mL): 0.931
- fitness (S. pneumoniae D39V [2]; first compound 0.02 µg/mL, partner 8 µg/mL): 0.908
- fitness (S. pneumoniae D39V [2]; first compound 0.02 µg/mL, partner 16 µg/mL, one replicate): 0.863
- fitness (S. pneumoniae D39V [2]; first compound 0.04 µg/mL, partner 2 µg/mL): 0.33
- fitness (S. pneumoniae D39V [2]; first compound 0.04 µg/mL, partner 4 µg/mL): 0.399
- fitness (S. pneumoniae D39V [2]; first compound 0.04 µg/mL, partner 8 µg/mL): 0.441
- fitness (S. pneumoniae D39V [2]; first compound 0.04 µg/mL, partner 16 µg/mL, one replicate): 0.436
- fitness (S. aureus Newman [3]; first compound 0.0156 µg/mL, partner 1 µg/mL): 0.808
- fitness (S. aureus Newman [3]; first compound 0.0156 µg/mL, partner 2 µg/mL): 0.726
- fitness (S. aureus Newman [3]; first compound 0.0312 µg/mL, partner 1 µg/mL): 0.738
- fitness (S. aureus Newman [3]; first compound 0.0312 µg/mL, partner 2 µg/mL): 0.644
- fitness (S. aureus Newman [3]; first compound 0.0625 µg/mL, partner 1 µg/mL): 0.606
- fitness (S. aureus Newman [3]; first compound 0.0625 µg/mL, partner 2 µg/mL): 0.531
- Bliss interaction score (B. subtilis 168 [4]): -0.113
- Bliss interaction score (S. pneumoniae D39V [5]): 0.093
- Bliss interaction score (S. aureus Newman [6]): -0.0537
- Bliss interaction score (S. aureus DSM 20231): -0.0653
